Test: In vitro dissolution of fulvestrant-loaded DPODs in simulated gastric fluid
Conditions: aqueous dissolution media
Experimental: The exact time of release can vary from 5 minutes to 120 minutes, with the capability to dissolve in less than 60 minutes and in less than 30 minutes and in less than 20 minutes depending on the exact pH. These parameters can be controlled by modifying the extent of drug loading and the composition of the DPOD.

## C[C@]12CC[C@@H]3c4ccc(O)cc4C[C@@H](CCCCCCCCC[S+]([O-])CCCC(F)(F)C(F)(F)F)[C@H]3[C@@H]1CC[C@@H]2O (stereo partly drawn) [fulvestrant, 7α-[9-[(4,4,5,5,5-Pentafluoropentyl)-sulfinyl]nonyl]estra-1,3,5(10)-triene-3,17β-diol]
  saturation concentration of fulvestrant: 2 µg/mL

— patent publication US20240197635A1, “DISSOCIATING POLYMER MATRIX COMPOSITIONS OF FULVESTRANT AND METHODS OF THEIR MAKING AND USE” (VeraMorph LLC, priority 2021, published 2024)
